“Also recorded” adds a separate entry of the source.
Assays:
[1] = system: Human stomach cancer cell line MKN45; experiment: Tumor growth suppression by B. longum Re-105A/pBifiCD, 5-FC and maltose, MKN45 tumor-bearing nude rats; type: in vivo, nude rat; conditions: maltose 200 mg/body/day ip with bacteria and 5-FC
[2] = system: Human breast cancer cell line KPL-1; conditions: 10% maltose ip versus saline
[3] = system: Human breast cancer cell line KPL-1; experiment: Tumor growth suppression by B. longum Re-105A/pBifiCD, 5-FC and maltose or lactulose, KPL-1 tumor-bearing nude mice; type: in vivo, nude mouse

| SMILES | Effect of maltose, conclusion of the test [1] | Effect of maltose on colonization and proliferation in tumor tissue [2] | Mice died during test ([3]; Group C: bacteria, 5-FC, 20% (w/v) lactulose 1 mL ip once a day, deaths Day 13 and Day 19) | Effect of lactulose, conclusion of the test ([3]; lactulose 200 mg/day ip with bacteria and 5-FC) |
| --- | --- | --- | --- | --- |
| OC[C@H]1O[C@H](O[C@H]2[C@H](O)[C@@H](O)[C@H](O)O[C@@H]2CO)[C@H](O)[C@@H](O)[C@@H]1O [Maltose] | effect in promoting specific colonization of B. longum Re-105A/pBifiCD in tumor tissue, and an effect in promoting proliferation and an effect in maintaining proliferation in tumor tissue | effect in promoting specific colonization of B. longum Re-105A/pBifiCD in tumor tissue; also recorded: effect in promoting the proliferation and an effect of maintaining the proliferation of B. longum Re-105A/pBifiCD in tumor tissue |  |  |
| OC[C@H]1O[C@@H](O[C@@H]2[C@@H](CO)OC(O)(CO)[C@H]2O)[C@H](O)[C@@H](O)[C@H]1O (mixture of isomers) [lactulose] |  |  | two mice had died during the administration period | can enhance the antitumor effect of B. longum Re-105A/pBifiCD |

From patent US8470311B2, “Therapeutic agent for anaerobic diseases” (priority 2008, dated 2013)
